Holding throughout (type): biochemical
Experiment [1] concerns α-Glucosidase. The experiment in a line: inhibition of human liver α-glucosidase. The note with it: 1 mM inhibitor. On the procedure: (§1) Human liver glycosidases were assayed in the absence and presence [1 mM] of each of the potential inhibitors, using the appropriate buffered 4-methylumbelliferyl glycosides as substrates, as previously described.^17 See Table I, below.
For experiment [2], the target named is T1, α-Galactosidase (Homo sapiens, UniProt P06280).
T1 construct: Human liver glycosidases were assayed; from tissue; host or cells: human liver
T1 sequence (P06280 32-429): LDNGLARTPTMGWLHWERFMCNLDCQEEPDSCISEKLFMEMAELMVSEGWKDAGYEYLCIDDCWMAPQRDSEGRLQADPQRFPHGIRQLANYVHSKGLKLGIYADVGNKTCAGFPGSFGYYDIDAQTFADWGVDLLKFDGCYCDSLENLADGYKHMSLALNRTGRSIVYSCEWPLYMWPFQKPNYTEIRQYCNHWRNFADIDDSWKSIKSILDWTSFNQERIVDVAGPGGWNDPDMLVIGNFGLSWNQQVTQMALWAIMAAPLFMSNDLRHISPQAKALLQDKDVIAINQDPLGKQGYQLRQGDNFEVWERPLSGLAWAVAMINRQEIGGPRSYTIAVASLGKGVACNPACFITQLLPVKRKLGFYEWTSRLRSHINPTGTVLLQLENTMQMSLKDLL
The experiment in a line: inhibition of human liver α-galactosidase. The note with it: read-out: % Inhibition of Glycosidase Activity, α-Galactosidase. As for the experimental part: as §1

The target of experiment [3] is T2, β-Xylosidase (Homo sapiens, UniProt Q9H227).
T2 construct: Human liver glycosidases were assayed; from tissue; host or cells: human liver
T2 sequence (Q9H227 1-469): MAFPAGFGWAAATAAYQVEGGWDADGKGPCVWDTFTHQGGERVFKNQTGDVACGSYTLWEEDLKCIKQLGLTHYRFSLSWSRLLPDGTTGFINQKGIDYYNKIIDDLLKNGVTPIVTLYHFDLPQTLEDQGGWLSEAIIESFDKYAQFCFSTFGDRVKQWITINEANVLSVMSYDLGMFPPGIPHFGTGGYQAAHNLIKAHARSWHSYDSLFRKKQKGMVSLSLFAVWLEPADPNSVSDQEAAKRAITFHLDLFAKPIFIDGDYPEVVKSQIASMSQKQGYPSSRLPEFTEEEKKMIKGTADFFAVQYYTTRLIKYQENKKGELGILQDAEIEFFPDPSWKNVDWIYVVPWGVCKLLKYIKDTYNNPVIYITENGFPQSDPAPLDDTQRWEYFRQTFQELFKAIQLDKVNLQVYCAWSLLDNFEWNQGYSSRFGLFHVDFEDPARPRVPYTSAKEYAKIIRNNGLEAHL
Description: inhibition of human liver β-xylosidase. The note with it: 1 mM inhibitor; read-out: % Inhibition of Glycosidase Activity, β-Xylosidase. As for the experimental part: as §1

For experiment [4], the system named is β-Hexosaminidase. The experiment in a line: inhibition of human liver β-hexosaminidase. Conditions: for inhibition of β-hexosaminidase (in words): 1 mM; for % Inhibition of Glycosidase Activity, β-Hexosaminidase: 1 mM inhibitor. As for the experimental part: as §1
In experiment [5] the target is T3, Golgi α-Mannosidase (Homo sapiens, UniProt Q16706).
T3 construct: Human liver glycosidases were assayed; from tissue; host or cells: human liver
T3 sequence (Q16706 1-1144): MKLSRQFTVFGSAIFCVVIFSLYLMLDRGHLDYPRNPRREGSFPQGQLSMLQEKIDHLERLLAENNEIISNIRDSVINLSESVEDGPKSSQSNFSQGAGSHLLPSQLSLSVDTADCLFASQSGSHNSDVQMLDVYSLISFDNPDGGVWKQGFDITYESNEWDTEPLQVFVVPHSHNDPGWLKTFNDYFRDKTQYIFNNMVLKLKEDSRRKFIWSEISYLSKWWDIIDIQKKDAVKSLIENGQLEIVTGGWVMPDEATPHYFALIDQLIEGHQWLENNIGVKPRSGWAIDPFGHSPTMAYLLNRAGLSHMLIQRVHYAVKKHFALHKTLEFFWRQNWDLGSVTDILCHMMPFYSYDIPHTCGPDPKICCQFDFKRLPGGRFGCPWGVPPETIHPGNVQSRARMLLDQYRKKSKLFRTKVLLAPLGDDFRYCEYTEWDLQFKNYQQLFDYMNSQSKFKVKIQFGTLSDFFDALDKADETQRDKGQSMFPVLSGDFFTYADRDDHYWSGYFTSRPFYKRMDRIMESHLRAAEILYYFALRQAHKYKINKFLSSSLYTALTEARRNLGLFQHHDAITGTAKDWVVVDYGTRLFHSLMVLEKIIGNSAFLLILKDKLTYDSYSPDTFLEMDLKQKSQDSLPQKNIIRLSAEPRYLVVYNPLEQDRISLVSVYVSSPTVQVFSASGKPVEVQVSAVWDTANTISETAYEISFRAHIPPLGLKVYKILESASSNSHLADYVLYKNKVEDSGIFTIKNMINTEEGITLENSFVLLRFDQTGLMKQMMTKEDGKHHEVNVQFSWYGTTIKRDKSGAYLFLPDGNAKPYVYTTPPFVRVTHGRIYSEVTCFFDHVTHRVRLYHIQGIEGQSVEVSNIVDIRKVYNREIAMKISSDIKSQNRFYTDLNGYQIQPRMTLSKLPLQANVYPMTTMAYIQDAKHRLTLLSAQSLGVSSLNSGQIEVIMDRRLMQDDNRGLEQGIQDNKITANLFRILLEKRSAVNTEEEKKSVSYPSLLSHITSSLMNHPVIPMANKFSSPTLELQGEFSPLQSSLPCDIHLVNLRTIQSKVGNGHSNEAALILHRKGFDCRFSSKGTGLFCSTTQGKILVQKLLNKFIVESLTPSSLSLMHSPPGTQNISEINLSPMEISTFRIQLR
Description: inhibition of human liver Golgi α-mannosidase. Conditions: 1 mM inhibitor; read-out: % Inhibition of Glycosidase Activity, α-Mannosidase Golgi. As for the experimental part:
as §1

Structures are written as SMILES. Like-named read-outs stand apart in the source and are kept apart here.

A word on the inhibition: it is the relative decrease from the control value, in per cent. As to `NC[C@H]1O[C@H]([C@H](O)CO)[C@H](O)[C@@H]1O` [Manhepamine (5), 1-amino-2,5-anhydro-1-deoxy-D-glycero-D-talo-heptitol], the “% Inhibition of Glycosidase Activity, α-Glucosidase” value (“% Inhibition … α-Glucosidase” below) in experiment [1] was 0%. Moreover, in experiment [2] (1 mM inhibitor), the inhibition at 1000 µM turned out to be 0%. The inhibition at 1000 µM in experiment [3] amounted to 6%. Also, in experiment [4], the “inhibition of β-hexosaminidase (in words)” value (from here on “inhibition … (in words)”) was “weak inhibitory properties towards β-N-acetylhexosaminidase” and the “% Inhibition of Glycosidase Activity, β-Hexosaminidase” value (“% Inhibition … β-Hexosaminidase” below) is recorded as 46%.
Regarding `OC[C@@H](O)[C@H]1N[C@H](CO)[C@@H](O)[C@H]1O` [αHomoDIM (4), 2,5-dideoxy-2,5-imino-D-glycero-D-talo-heptitol], in experiment [1], the “% Inhibition … α-Glucosidase” value stood at 12%. Besides, the inhibition at 1000 µM in experiment [2] (1 mM inhibitor) came to 11%; in experiment [3], 21%; in experiment [5], 92%. Moreover, in experiment [4], the “% Inhibition … β-Hexosaminidase” value worked out at 0%.
As for `OC[C@H]1N[C@H](CO)[C@@H](O)C(O)[C@@H]1O` (stereo partly drawn) [αHomoDMJ (2)], the “% Inhibition … α-Glucosidase” value in experiment [1] was 4%. Also, the inhibition at 1000 µM in experiment [2] (1 mM inhibitor) was determined as 0%; in experiment [3] it was 0%; in experiment [5], 56%. In experiment [4], the “inhibition … (in words)” value is on record as “abolish the moderate inhibition of β-hexosaminidase”. In addition, the “% Inhibition … β-Hexosaminidase” value in experiment [4] is 1%.
With `OC[C@@H](O)[C@H]1NC[C@@H](O)[C@H]1O` [DIM (3)], the “% Inhibition … α-Glucosidase” value in experiment [1] is 0%. Besides, the values for the inhibition at 1000 µM in experiment [2] (1 mM inhibitor), in experiment [3] and in experiment [5] were 0%, 45% and 96%, respectively. Also, in experiment [4], the “% Inhibition … β-Hexosaminidase” value is reported as 28%.
As for `OC[C@H]1NC[C@@H](O)[C@@H](O)[C@@H]1O` [DMJ (1), deoxymannojirimycin], the “% Inhibition … α-Glucosidase” value in experiment [1] is on record as 21%. For the same molecule, the inhibition at 1000 µM in experiment [2] amounted to 0%; in experiment [3], 3%; in experiment [5], 45%. Moreover, the “inhibition … (in words)” value in experiment [4] is recorded as “moderate inhibition of β-hexosaminidase”. The “% Inhibition … β-Hexosaminidase” value in experiment [4] worked out at 55%.

These data come from patent publication US5384417A, “Heptitols” (priority 1994, dated 1995).
